Measurements taken from ChEMBL document CHEMBL4507286 (2021).

Legend:
[1] = target: Tyrosine-protein kinase ABL1 (Homo sapiens) (UniProt P00519)
[2] = target: Bone morphogenetic protein receptor type-1B (Homo sapiens) (UniProt O00238)
[3] = target: Serine/threonine-protein kinase B-raf (Homo sapiens) (UniProt P15056)
[4] = target: Protein-tyrosine kinase 6 (Homo sapiens) (UniProt Q13882)
[5] = target: Tyrosine-protein kinase BTK (Homo sapiens) (UniProt Q06187)
[6] = target: Calcium/calmodulin-dependent protein kinase type II subunit beta (Homo sapiens) (UniProt Q13554)
[7] = target: Cyclin-dependent kinase 9 (Homo sapiens) (UniProt P50750)
[8] = target: Cyclin-dependent kinase-like 5 (Homo sapiens) (UniProt O76039)
Cyclin-dependent kinase-like 5 (Homo sapiens), sequence (O76039 whole entry, canonical isoform): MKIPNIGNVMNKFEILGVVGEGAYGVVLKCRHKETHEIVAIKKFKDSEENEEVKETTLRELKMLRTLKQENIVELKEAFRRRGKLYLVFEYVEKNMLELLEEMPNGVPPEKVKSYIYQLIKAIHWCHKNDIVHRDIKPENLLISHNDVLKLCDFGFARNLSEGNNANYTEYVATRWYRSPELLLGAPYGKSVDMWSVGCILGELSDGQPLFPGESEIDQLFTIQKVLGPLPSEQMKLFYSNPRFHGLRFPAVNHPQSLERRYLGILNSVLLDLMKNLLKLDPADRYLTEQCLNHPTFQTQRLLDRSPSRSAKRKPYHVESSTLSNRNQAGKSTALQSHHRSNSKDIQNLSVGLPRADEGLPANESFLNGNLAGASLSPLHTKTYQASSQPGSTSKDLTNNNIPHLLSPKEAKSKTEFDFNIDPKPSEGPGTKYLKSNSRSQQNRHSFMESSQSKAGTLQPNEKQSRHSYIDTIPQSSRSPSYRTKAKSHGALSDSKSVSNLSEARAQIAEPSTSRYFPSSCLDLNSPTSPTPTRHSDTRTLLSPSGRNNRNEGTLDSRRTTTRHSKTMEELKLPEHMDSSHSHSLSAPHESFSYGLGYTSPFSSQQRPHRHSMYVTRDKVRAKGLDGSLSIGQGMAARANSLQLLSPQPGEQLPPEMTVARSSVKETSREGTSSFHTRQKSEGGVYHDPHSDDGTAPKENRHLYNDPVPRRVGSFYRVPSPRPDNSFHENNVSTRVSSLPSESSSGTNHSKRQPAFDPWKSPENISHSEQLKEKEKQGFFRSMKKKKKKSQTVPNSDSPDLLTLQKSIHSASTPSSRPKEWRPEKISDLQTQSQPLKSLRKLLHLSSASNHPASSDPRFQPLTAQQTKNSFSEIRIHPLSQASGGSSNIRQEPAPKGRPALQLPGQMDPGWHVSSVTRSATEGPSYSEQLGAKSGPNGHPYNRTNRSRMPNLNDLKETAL

[9] = target: Casein kinase I isoform gamma-1 (Homo sapiens) (UniProt Q9HCP0)
[10] = target: Casein kinase II subunit alpha (Homo sapiens) (UniProt P68400)
[11] = target: Serine/threonine-protein kinase MRCK gamma (Homo sapiens) (UniProt Q6DT37)
[12] = target: Dual specificity tyrosine-phosphorylation-regulated kinase 2 (Homo sapiens) (UniProt Q92630)
[13] = tested on: Epidermal growth factor receptor (Homo sapiens), P00533 [G719S]
[14] = tested on: Epidermal growth factor receptor (Homo sapiens), P00533 [T790M]
[15] = target: Ephrin type-A receptor 3 (Homo sapiens) (UniProt P29320)
[16] = target: Mitogen-activated protein kinase 6 (Homo sapiens) (UniProt Q16659)
[17] = tested on: Receptor-type tyrosine-protein kinase FLT3 (Homo sapiens), P36888 [UNDEFINED MUTATION]
[18] = target: Cyclin-G-associated kinase (Homo sapiens) (UniProt O14976)
[19] = target: Inhibitor of nuclear factor kappa-B kinase subunit alpha (Homo sapiens) (UniProt O15111)
[20] = target: Interleukin-1 receptor-associated kinase 1 (Homo sapiens) (UniProt P51617)
[21] = tested on: Mast/stem cell growth factor receptor Kit (Homo sapiens), P10721 [A829P]
Mast/stem cell growth factor receptor Kit (Homo sapiens), P10721 [A829P], sequence (P10721 whole entry A829P): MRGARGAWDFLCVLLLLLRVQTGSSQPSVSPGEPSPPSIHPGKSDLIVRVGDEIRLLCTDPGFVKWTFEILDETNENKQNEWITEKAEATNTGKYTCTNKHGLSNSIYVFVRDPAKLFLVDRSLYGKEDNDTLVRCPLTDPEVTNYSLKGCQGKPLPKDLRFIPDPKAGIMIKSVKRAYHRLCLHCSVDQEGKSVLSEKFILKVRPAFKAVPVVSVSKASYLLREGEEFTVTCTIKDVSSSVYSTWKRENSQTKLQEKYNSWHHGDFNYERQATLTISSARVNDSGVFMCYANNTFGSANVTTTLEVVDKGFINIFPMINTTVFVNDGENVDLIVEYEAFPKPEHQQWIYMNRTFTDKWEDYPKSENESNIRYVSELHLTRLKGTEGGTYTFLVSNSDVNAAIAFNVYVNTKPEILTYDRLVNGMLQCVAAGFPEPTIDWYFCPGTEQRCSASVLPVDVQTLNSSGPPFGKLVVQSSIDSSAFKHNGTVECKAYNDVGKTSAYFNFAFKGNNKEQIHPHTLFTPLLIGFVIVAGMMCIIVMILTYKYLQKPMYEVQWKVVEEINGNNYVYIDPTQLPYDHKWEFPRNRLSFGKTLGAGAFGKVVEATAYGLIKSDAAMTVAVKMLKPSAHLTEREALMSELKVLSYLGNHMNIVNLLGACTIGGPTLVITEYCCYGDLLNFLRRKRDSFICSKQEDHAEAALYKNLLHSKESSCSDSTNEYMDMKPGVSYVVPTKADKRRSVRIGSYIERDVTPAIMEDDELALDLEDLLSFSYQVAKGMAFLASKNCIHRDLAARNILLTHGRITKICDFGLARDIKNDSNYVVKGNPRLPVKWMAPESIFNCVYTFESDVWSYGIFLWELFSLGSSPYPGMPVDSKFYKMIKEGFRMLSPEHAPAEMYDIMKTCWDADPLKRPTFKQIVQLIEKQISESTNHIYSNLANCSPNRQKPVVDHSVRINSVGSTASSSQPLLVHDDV

[22] = tested on: Mast/stem cell growth factor receptor Kit (Homo sapiens), P10721 [D816H]
Mast/stem cell growth factor receptor Kit (Homo sapiens), P10721 [D816H], sequence (P10721 whole entry D816H): as the sequence (P10721 whole entry A829P) above, with D816H, P829A counted along it

[23] = tested on: Mast/stem cell growth factor receptor Kit (Homo sapiens), P10721 [V559D,V654A]
Mast/stem cell growth factor receptor Kit (Homo sapiens), P10721 [V559D,V654A], sequence (P10721 whole entry V559D/V654A): as the sequence (P10721 whole entry A829P) above, with V559D, V654A, P829A counted along it

[24] = target: Serine/threonine-protein kinase 38 (Homo sapiens) (UniProt Q15208)
[25] = target: Serine/threonine-protein kinase 38-like (Homo sapiens) (UniProt Q9Y2H1)
[26] = target: Serine/threonine-protein kinase NLK (Homo sapiens) (UniProt Q9UBE8)
[27] = target: 3-phosphoinositide-dependent protein kinase 1 (Homo sapiens) (UniProt O15530)
[28] = target: Phosphatidylinositol 4-phosphate 3-kinase C2 domain-containing subunit beta (Homo sapiens) (UniProt O00750)
Phosphatidylinositol 4-phosphate 3-kinase C2 domain-containing subunit beta (Homo sapiens), sequence (O00750 whole entry, the tested form may be a part, canonical isoform): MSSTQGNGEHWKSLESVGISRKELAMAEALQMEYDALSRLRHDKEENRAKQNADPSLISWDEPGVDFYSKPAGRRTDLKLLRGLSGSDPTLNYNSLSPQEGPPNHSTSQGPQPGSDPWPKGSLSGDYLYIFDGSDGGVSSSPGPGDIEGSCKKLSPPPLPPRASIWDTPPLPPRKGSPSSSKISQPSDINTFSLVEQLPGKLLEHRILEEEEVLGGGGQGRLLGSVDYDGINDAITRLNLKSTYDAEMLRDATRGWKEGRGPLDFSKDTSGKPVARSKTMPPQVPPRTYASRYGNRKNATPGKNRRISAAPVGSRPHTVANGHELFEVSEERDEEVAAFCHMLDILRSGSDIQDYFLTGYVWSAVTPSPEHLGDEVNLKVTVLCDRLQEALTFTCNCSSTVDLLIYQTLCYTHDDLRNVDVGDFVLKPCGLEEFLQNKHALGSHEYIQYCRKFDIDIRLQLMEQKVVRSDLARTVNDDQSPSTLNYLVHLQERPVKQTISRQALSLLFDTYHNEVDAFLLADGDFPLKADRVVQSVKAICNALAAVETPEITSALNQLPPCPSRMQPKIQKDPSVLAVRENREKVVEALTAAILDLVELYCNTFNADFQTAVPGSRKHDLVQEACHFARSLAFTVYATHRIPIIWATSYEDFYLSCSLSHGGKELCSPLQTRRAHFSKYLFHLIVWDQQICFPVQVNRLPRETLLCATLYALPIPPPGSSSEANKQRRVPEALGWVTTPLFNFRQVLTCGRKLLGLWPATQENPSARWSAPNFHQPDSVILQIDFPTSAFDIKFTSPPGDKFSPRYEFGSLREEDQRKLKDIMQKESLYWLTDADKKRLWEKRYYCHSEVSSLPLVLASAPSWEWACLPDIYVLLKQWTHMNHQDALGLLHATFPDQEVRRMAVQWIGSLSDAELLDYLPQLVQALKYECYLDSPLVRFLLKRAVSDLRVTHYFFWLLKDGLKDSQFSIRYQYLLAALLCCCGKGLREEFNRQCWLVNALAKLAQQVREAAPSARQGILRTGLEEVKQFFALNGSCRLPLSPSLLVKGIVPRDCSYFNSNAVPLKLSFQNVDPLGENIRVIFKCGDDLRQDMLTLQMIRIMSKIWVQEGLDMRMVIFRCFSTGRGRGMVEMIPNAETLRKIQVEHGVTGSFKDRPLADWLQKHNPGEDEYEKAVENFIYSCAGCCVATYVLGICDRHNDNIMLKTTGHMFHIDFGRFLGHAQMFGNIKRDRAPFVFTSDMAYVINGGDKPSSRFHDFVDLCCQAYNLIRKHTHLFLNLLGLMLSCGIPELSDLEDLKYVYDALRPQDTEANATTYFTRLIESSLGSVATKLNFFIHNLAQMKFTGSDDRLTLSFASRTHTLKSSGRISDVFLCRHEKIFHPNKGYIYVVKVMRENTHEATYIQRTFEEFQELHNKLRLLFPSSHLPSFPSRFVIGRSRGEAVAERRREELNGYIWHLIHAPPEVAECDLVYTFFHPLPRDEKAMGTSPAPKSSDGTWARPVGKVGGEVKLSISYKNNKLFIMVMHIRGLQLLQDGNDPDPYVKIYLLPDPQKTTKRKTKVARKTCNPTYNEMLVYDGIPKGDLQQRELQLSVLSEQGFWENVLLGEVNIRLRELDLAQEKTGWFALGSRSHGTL

[29] = tested on: Phosphatidylinositol 4,5-bisphosphate 3-kinase catalytic subunit alpha isoform (Homo sapiens), P42336 [E542K]
[30] = target: Serine/threonine-protein kinase pim-1 (Homo sapiens) (UniProt P11309)
Serine/threonine-protein kinase pim-1 (Homo sapiens), sequence (P11309 whole entry, looked up): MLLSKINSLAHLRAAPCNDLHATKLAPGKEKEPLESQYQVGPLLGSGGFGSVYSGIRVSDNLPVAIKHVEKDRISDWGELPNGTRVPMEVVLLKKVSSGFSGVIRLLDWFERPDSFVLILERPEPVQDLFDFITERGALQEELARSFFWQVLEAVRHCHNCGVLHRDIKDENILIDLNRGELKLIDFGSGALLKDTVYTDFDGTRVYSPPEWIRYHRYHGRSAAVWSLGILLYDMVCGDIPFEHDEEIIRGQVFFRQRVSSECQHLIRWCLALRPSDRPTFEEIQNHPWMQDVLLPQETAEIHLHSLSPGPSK

[31] = target: cAMP-dependent protein kinase catalytic subunit alpha (Homo sapiens) (UniProt P17612)
[32] = target: Serine/threonine-protein kinase N2 (Homo sapiens) (UniProt Q16513)
[33] = target: Serine/threonine-protein kinase D1 (Homo sapiens) (UniProt Q15139)
[34] = target: cGMP-dependent protein kinase 1 (Homo sapiens) (UniProt Q13976)
[35] = target: Ribosomal protein S6 kinase alpha-1 (Homo sapiens) (UniProt Q15418)
[36] = target: Ribosomal protein S6 kinase alpha-2 (Homo sapiens) (UniProt Q15349)
[37] = target: Serine/threonine-protein kinase Sgk2 (Homo sapiens) (UniProt Q9HBY8)
[38] = target: Serine/threonine-protein kinase 36 (Homo sapiens) (UniProt Q9NRP7)
[39] = target: Serine/threonine-protein kinase TAO3 (Homo sapiens) (UniProt Q9H2K8)
Serine/threonine-protein kinase TAO3 (Homo sapiens), sequence (Q9H2K8 whole entry): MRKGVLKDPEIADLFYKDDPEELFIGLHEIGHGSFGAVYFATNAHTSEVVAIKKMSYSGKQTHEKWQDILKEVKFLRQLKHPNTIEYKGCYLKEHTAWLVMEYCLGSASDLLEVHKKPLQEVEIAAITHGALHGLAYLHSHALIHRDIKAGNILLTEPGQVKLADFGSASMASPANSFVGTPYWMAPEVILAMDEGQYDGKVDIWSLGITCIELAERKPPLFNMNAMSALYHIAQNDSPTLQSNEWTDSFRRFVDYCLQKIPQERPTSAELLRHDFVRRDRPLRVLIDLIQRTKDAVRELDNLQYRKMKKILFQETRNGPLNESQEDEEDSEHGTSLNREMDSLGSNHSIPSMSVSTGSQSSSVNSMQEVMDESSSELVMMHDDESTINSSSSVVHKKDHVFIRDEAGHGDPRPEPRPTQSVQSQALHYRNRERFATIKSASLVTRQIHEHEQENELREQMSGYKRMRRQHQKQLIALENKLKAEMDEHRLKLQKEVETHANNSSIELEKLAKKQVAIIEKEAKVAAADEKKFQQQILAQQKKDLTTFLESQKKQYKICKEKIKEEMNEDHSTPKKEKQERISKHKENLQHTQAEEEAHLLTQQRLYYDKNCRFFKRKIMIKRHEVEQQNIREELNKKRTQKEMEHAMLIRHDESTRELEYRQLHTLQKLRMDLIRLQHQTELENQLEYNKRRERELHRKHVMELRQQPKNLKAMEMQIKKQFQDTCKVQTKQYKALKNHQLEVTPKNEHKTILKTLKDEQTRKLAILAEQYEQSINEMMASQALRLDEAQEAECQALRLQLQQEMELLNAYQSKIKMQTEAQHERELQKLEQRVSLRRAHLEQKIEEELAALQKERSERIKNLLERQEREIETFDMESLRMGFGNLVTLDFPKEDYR

[40] = target: TRAF2 and NCK-interacting protein kinase (Homo sapiens) (UniProt Q9UKE5)
[41] = target: Serine/threonine-protein kinase ULK2 (Homo sapiens) (UniProt Q8IYT8)
[42] = target: Serine/threonine-protein kinase WNK2 (Homo sapiens) (UniProt Q9Y3S1)
[43] = target: 5-hydroxytryptamine receptor 1D (Homo sapiens) (UniProt P28221); settings: Compound concentration 10.0 uM
[44] = target: Alpha-1B adrenergic receptor (Homo sapiens) (UniProt P35368); settings: Compound concentration 10.0 uM
[45] = target: Muscarinic acetylcholine receptor M3 (Homo sapiens) (UniProt P20309); settings: Compound concentration 10.0 uM
[46] = Compound concentration 1000.0 nM
[47] = Compound concentration 100.0 nM

C[C@H](NC(=O)Nc1cc2[nH]ncc2c(CO)n1)c1ccccn1 [ERKi-NC]
inactive: residual activity [1, 46] 72.8% | residual activity [2, 46] 100% | residual activity [3, 46] 100% | residual activity [4, 46] 100% | residual activity [5, 46] 92% | residual activity [6, 46] 100% | residual activity [7, 46] 100% | residual activity [8, 46] 100% | residual activity [9, 46] 100% | residual activity [10, 46] 100% | residual activity [11, 46] 100% | residual activity [12, 46] 100% | residual activity [13, 46] 100% | residual activity [14, 46] 100% | residual activity [15, 46] 100% | residual activity [16, 46] 100% | residual activity [17, 46] 100% | residual activity [18, 46] 100% | residual activity [19, 46] 100% | residual activity [20, 46] 100% | residual activity [21, 46] 100% | residual activity [22, 46] 89.4% | residual activity [23, 46] 100% | residual activity [24, 46] 81.4% | residual activity [25, 46] 100% | residual activity [26, 46] 66.3% | residual activity [27, 46] 86.3% | residual activity [28, 46] 100% | residual activity [29, 46] 76.7% | residual activity [30, 46] 78.2% | residual activity [31, 46] 87.7% | residual activity [32, 46] 100% | residual activity [33, 46] 89.4% | residual activity [34, 46] 90.7% | residual activity [35, 46] 100% | residual activity [36, 46] 100% | residual activity [37, 46] 100% | residual activity [38, 46] 97.3% | residual activity [39, 46] 100% | residual activity [40, 46] 100% | residual activity [41, 46] 100% | residual activity [42, 46] 90.7% | inhibition [43] 39.9% | inhibition [44] 1.42% | inhibition [45] -1.84%

C[C@@H](NC(=O)Nc1cc2[nH]ncc2c(CO)n1)c1ccccc1 [ERKi]
inactive: residual activity [1, 47] 87% | residual activity [2, 47] 69.4% | residual activity [3, 47] 86.9% | residual activity [4, 47] 86.6% | residual activity [5, 47] 100% | residual activity [6, 47] 75.2% | residual activity [7, 47] 95.4% | residual activity [8, 47] 88.3% | residual activity [9, 47] 83% | residual activity [10, 47] 94% | residual activity [11, 47] 98.2% | residual activity [12, 47] 59.3% | residual activity [13, 47] 86.3% | residual activity [14, 47] 82.1% | residual activity [15, 47] 79.4% | residual activity [16, 47] 95.2% | residual activity [17, 47] 100% | residual activity [18, 47] 100% | residual activity [19, 47] 100% | residual activity [20, 47] 54.8% | residual activity [21, 47] 55.1% | residual activity [22, 47] 86.9% | residual activity [23, 47] 96.6% | residual activity [24, 47] 75.2% | residual activity [25, 47] 72.7% | residual activity [26, 47] 100% | residual activity [27, 47] 100% | residual activity [28, 47] 85.7% | residual activity [29, 47] 78.6% | residual activity [30, 47] 90.3% | residual activity [31, 47] 91.8% | residual activity [32, 47] 83.4% | residual activity [33, 47] 100% | residual activity [34, 47] 52.4% | residual activity [35, 47] 100% | residual activity [36, 47] 90.7% | residual activity [37, 47] 66.7% | residual activity [38, 47] 88.4% | residual activity [39, 47] 73% | residual activity [40, 47] 95.8% | residual activity [41, 47] 79.7% | residual activity [42, 47] 100% | inhibition [43] 1.59% | inhibition [44] -2.72% | inhibition [45] -5.17%
